# ± gives the expanded uncertainty stated by the source.
# Settings: Crystal, Calculated from knudsen effusion weight loss
smiles,measurement,setting,value
[Cu][Br] [copper(1+) bromide],vapor or sublimation pressure,528.8 K,1.17e-05 ± 1.2e-06 kPa
same,vapor or sublimation pressure,530.1 K,9.37e-06 ± 1e-06 kPa
same,vapor or sublimation pressure,532 K,1.25e-05 ± 1.3e-06 kPa
same,vapor or sublimation pressure,551.4 K,2.45e-05 ± 2.7e-06 kPa
same,vapor or sublimation pressure,551.6 K,3.17e-05 ± 3.4e-06 kPa
same,vapor or sublimation pressure,553.5 K,4.55e-05 ± 4.8e-06 kPa
same,vapor or sublimation pressure,570.8 K,9.35e-05 ± 9.9e-06 kPa
same,vapor or sublimation pressure,572.6 K,0.000104 ± 1.1e-05 kPa
same,vapor or sublimation pressure,573.5 K,0.000113 ± 1.2e-05 kPa
same,vapor or sublimation pressure,592.1 K,0.000235 ± 2.5e-05 kPa
same,vapor or sublimation pressure,593.8 K,0.000273 ± 2.9e-05 kPa
same,vapor or sublimation pressure,594.6 K,0.000301 ± 3.2e-05 kPa
same,vapor or sublimation pressure,611.9 K,0.000512 ± 5.4e-05 kPa
same,vapor or sublimation pressure,614.9 K,0.000595 ± 6.3e-05 kPa
same,vapor or sublimation pressure,618.1 K,0.000705 ± 7.5e-05 kPa
same,vapor or sublimation pressure,633 K,0.00115 ± 0.00014 kPa
same,vapor or sublimation pressure,634.1 K,0.00121 ± 0.00015 kPa
same,vapor or sublimation pressure,635 K,0.00109 ± 0.00013 kPa
same,vapor or sublimation pressure,655.2 K,0.00229 ± 0.0003 kPa
same,vapor or sublimation pressure,656.8 K,0.00229 ± 0.0003 kPa
same,vapor or sublimation pressure,658.2 K,0.00269 ± 0.00035 kPa
[Br-].[Br-].[Zn+2] [zinc bromide],vapor or sublimation pressure,452.5 K,2.26e-05 ± 2.4e-06 kPa
same,vapor or sublimation pressure,452.8 K,2.04e-05 ± 2.2e-06 kPa
same,vapor or sublimation pressure,453.1 K,2.07e-05 ± 2.2e-06 kPa
same,vapor or sublimation pressure,453.6 K,1.28e-05 ± 1.4e-06 kPa
same,vapor or sublimation pressure,469.4 K,4.74e-05 ± 5e-06 kPa
same,vapor or sublimation pressure,472.1 K,9.63e-05 ± 1e-05 kPa
same,vapor or sublimation pressure,472.7 K,8.63e-05 ± 9.2e-06 kPa
same,vapor or sublimation pressure,473.8 K,7.35e-05 ± 7.8e-06 kPa
same,vapor or sublimation pressure,492.8 K,0.000262 ± 2.8e-05 kPa
same,vapor or sublimation pressure,493.1 K,0.000181 ± 1.9e-05 kPa
same,vapor or sublimation pressure,493.2 K,0.000217 ± 2.3e-05 kPa
same,vapor or sublimation pressure,493.9 K,0.000252 ± 2.7e-05 kPa
same,vapor or sublimation pressure,511.2 K,0.000691 ± 7.3e-05 kPa
same,vapor or sublimation pressure,511.3 K,0.000577 ± 6.1e-05 kPa
same,vapor or sublimation pressure,513 K,0.000684 ± 7.3e-05 kPa
same,vapor or sublimation pressure,513.1 K,0.000719 ± 7.6e-05 kPa
same,vapor or sublimation pressure,528.9 K,0.00158 ± 0.0002 kPa
same,vapor or sublimation pressure,530.2 K,0.00192 ± 0.00025 kPa
same,vapor or sublimation pressure,532.9 K,0.00201 ± 0.00026 kPa
same,vapor or sublimation pressure,533.9 K,0.0019 ± 0.00024 kPa
same,vapor or sublimation pressure,551.6 K,0.0051 ± 0.00071 kPa
same,vapor or sublimation pressure,552 K,0.00505 ± 0.0007 kPa
same,vapor or sublimation pressure,552.7 K,0.00453 ± 0.00062 kPa
same,vapor or sublimation pressure,552.8 K,0.00521 ± 0.00072 kPa
same,vapor or sublimation pressure,568 K,0.00978 ± 0.0014 kPa
same,vapor or sublimation pressure,570.3 K,0.0106 ± 0.0016 kPa
same,vapor or sublimation pressure,572.3 K,0.00997 ± 0.0014 kPa
same,vapor or sublimation pressure,574 K,0.0126 ± 0.0019 kPa
